Entries after “also recorded” stand apart in the source; their conditions may differ.
Assays:
tasters [1] = experiment: Bitterness perception with potassium chloride, taster panel (Example 6); settings: 0.3% KCl in water; 0.3% 1,3-propanediol, none or 0.3% propylene glycol; five tasters
tasters [2] = experiment: Taster evaluation with Robusta instant coffee (Example 12); assay type: in vivo, human; settings: 1 weight percent Robusta instant coffee in water; 0.3 weight percent propylene glycol (AE), none (AF) or 1,3-propanediol (AG)
Description: Samples were prepared to evaluate the effect of including 1,3-propanediol with coffee. Robusta instant coffee was prepared with 1 weight percent coffee in water. Sample AE included 0.3 weight percent propylene glycol in the prepared coffee. Sample AF was a coffee only control. Sample AG included 0.3 weight percent 1,3-propanediol in the prepared coffee.

tasters [3] = experiment: Paired taster test: which sample is more bitter, 0.25% KCl in water with or without 1,3-propanediol (Example 2); assay type: in vivo, human
Description: A 0.25% KCl in water solution was prepared and test samples were dosed with the appropriate amount of 1,3-propanediol according to Table 2 below. One ounce samples of each solution were prepared. The tasters received a pair (one blank and one dosed sample) and asked to rate which sample was more bitter. The scores in Table 2 are the number of tasters that chose that sample as being more bitter.

tasters [4] = experiment: Triangle test for detecting 1,3-propanediol at low concentration (Example 4); assay type: in vivo, human; settings: for tasters who could identify the 1,3-propanediol in a triangle test: four tasters
Description: Samples A-D were prepared according to Table 4 below to analyze and determine if 1,3-propanediol imparted any flavor when used at low concentrations. The samples were evaluated by a team of four tasters.
Samples A and B were compared.

tasters [5] = experiment: Taster evaluation with 1% citric acid (Example 9); assay type: in vivo, human; settings: 1 weight percent citric acid in water; 0.3 weight percent propylene glycol (V), none (W) or 1,3-propanediol (X); four tasters
Description: Samples were prepared to evaluate the effect of including 1,3-propanediol with a higher concentration of citric acid than in Example 8. Sample V included 1 weight percent citric acid and 0.3 weight percent propylene glycol in water. Sample W included 1 weight percent citric acid in water. Sample X included 1 weight percent citric acid in water with 0.3 weight percent 1,3-propanediol. The samples were then evaluated by a team of four tasters.

tasters [6] = experiment: Taster evaluation with earl grey tea (Example 11); assay type: in vivo, human; settings: steeped earl grey tea; 0.3 weight percent 1,3-propanediol (AB), none (AC) or propylene glycol (AD); four tasters
Description: Samples were prepared to evaluate the effect of including 1,3-propanediol with tea. Six earl grey tea bags were combined with 250 ml of water for 30 minutes. Sample AB included 0.3 weight percent 1,3-propanediol in the steeped tea and Sample AD included 0.3 weight percent propylene glycol in the steeped tea. Sample AC was a tea only control. The samples were evaluated by a team of four tasters.

tasters [7] = experiment: Taster evaluation with malic acid (Example 10); assay type: in vivo, human; settings: 1 weight percent malic acid in water; 0.3 weight percent 1,3-propanediol (Y), propylene glycol (Z) or none (AA)
Description: Samples were prepared to evaluate the effect of including 1,3-propanediol with malic acid. Sample Y included 1 weight percent malic acid with 0.3 weight percent 1,3-propanediol in water. Sample Z included 1 weight percent malic acid and 0.3 weight percent propylene glycol in water. Sample AA included 1 weight percent malic acid in water.

consumers [8] = experiment: Paired consumer tasting of beverages with 0.05% Stevia SG95 with or without 1,3-propanediol (Example 1); assay type: in vivo, human
Description: Beverage samples were prepared to evaluate the effect of the level of 1,3-propanediol on Stevia. The beverages were prepared just prior to testing using water and the ingredients according to Table 1 below.
Four pairs of beverages were evaluated by consumers in one sitting. The order of evaluating the pairs of products was blocked so that the highest level of 1,3-propanediol (sample 4) was always served as the first pair of beverages along with its corresponding control. The order of evaluating the beverage samples within pairs was rotated. There was a timed five minute break between pairs. Water and unsalted crackers were used as a palate cleanser before tasting each beverage and between beverage pairs. The beverages were prepared at the facility prior to the onset of test using water along with the designated solutions.
The stevia used was SG95 from PureCircle. SG95 is a high purity combination (>95% steviol glycosides) of nine steviol glycosides. Reb A accounts for over half of the composition but also includes Rebaudioside D and Rebaudioside F. SG95 is 230 times sweeter than sugar.
The samples were tasted by consumers between 21-55 years of age who consume diet beverages at least once per month and are non-rejectors of flavored beverages. The consumers had no allergies or sensitivities to beverages or sweeteners, including artificial sweeteners.

panelists = experiment: Panel assessment of Reb A beverage with or without 1,3-propanediol (Example 5); assay type: in vivo, human; settings: Sample H versus Sample G
Description: Samples were prepared to analyze the effect of 1,3-propanediol with sweeteners such as Reb A. Samples G and H were prepared as shown in Table 5 below.
Nine panelists compared the samples. Panelists rinsed prior to tasting the samples and in between sample assessment with seltzer, unsalted crackers and water with a one-minute break between samples. Samples were assessed on the second sip. The results are shown below in Table 6 with the comments indicating the order of what was tasted in each of the samples (Scale: 0-15=None to Extreme).

tasters [9] = experiment: Taster evaluation with acetic acid (Example 7); assay type: in vivo, human; settings: 0.05 percent acetic acid in water; none, 0.3 percent 1,3-propanediol or 0.3 percent propylene glycol; three tasters
Description: Samples were prepared to evaluate the effect of inclusion of 1,3-propanediol with acetic acid. Sample M included 0.05 percent acetic acid in water, Sample N included 0.05 percent acetic acid in water with 0.3 percent 1,3-propanediol, and Sample O included 0.05 percent acetic acid in water with 0.3 percent propylene glycol. The samples were evaluated by a team of three tasters.

consumers [10] = experiment: Paired consumer tasting of beverages with 0.25% KCl with or without 1,3-propanediol (Example 3); assay type: in vivo, human
Description: Beverage samples were prepared to evaluate the effect of the level of 1,3-propanediol on KCl. The samples were tasted by consumers between 21-55 years of age with no allergies or sensitivities to food or beverages or ingredients.
(§1) On day 1 of testing, consumers were given two samples, one a 0.25% KCl solution and the other water, and asked “Which beverage is more bitter?” This was replicated a total of three times to obtain four different trials. Order within the pair was rotated. Those who selected the KCl sample at least three times across the four trials were classified as “KCl sensitive.” Consumers then evaluated three more pairs of samples with varying levels of 1,3-propanediol with KCl versus a standard control (no 1,3-propanediol) as outlined in Table 3 below.
(§2) After the first day of testing, it was determined the number of KCl Bitterness Sensitive consumers may have been overstated. It was hypothesized that respondents could detect differences between plain water and water containing KCl, such as saltiness, but may not have been perceiving bitterness. Therefore, a second bitterness sensitivity test was conducted on day 2 using three pairs of a KCl solution (0.25%) versus a NaCl solution (0.15%) in an attempt to have the solutions iso-salty. Two new levels of Zemea were evaluated along with KCl versus a standard control as outlined in Table 3 below.
The order of evaluating the beverage samples within pairs were rotated (left/right). The order of evaluating the pairs of products was blocked so the highest level of 1,3-propanediol was always served as the first pair of beverages along with its control. There was a timed 5 minute break between pairs. Water and unsalted crackers were used as a palate cleanser before tasting each beverage and between beverage pairs.

consumers [11] = experiment: KCl bitterness sensitivity test (Example 3); assay type: in vivo, human
Text: as §1, §2

[12] = 0.000005 ppm 1,3-propanediol in 0.25% KCl in water
[13] = 0.00005 ppm 1,3-propanediol in 0.25% KCl in water
[14] = 0.005 ppm 1,3-propanediol in 0.25% KCl in water
[15] = 0.05 ppm 1,3-propanediol in 0.25% KCl in water
[16] = 0.5 ppm 1,3-propanediol in 0.25% KCl in water
[17] = 5 ppm 1,3-propanediol in 0.25% KCl in water
[18] = 50 ppm 1,3-propanediol in 0.25% KCl in water
[19] = 100 ppm 1,3-propanediol in 0.25% KCl in water
[20] = 500 ppm 1,3-propanediol in 0.25% KCl in water
[21] = 5000 ppm 1,3-propanediol in 0.25% KCl in water
[22] = first round, Pair 1: 0.0019 percent 1,3-propanediol with 0.05% Stevia SG95
[23] = first round, Pair 2: 0.0075 percent 1,3-propanediol with 0.05% Stevia SG95
[24] = second round, Pair 2: 0.000005 percent 1,3-propanediol with 0.05% Stevia SG95
[25] = second round, Pair 4: 0.0005 percent 1,3-propanediol with 0.05% Stevia SG95
[26] = about 0.0005% 1,3-propanediol with 0.25% KCl, consumers (general population), FIG. 4

OCCCO [1,3-propanediol]
bitterness as indicated by the tasters (tasters [1]): functioned to suppress bitterness when used with potassium chloride
bitterness as indicated by the tasters (tasters [2]): less bitter than without 1,3-propanediol
% of tasters that chose the control as more bittter (tasters [3]; [12]): 63%
number of tasters that chose the 1,3-Propanediol sample as being more bitter (tasters [3]; [12]): 3
% of tasters that chose the control as more bittter (tasters [3]; [13]): 63%
number of tasters that chose the 1,3-Propanediol sample as being more bitter (tasters [3]; [13]): 3
% of tasters that chose the control as more bittter (tasters [3]; 0.0005 ppm 1,3-propanediol in 0.25% KCl in water): 100%
% of tasters that chose the control as more bittter (tasters [3]; [14]): 50%
number of tasters that chose the 1,3-Propanediol sample as being more bitter (tasters [3]; [14]): 4
% of tasters that chose the control as more bittter (tasters [3]; [15]): 75%
number of tasters that chose the 1,3-Propanediol sample as being more bitter (tasters [3]; [15]): 2
% of tasters that chose the control as more bittter (tasters [3]; [16]): 63%
number of tasters that chose the 1,3-Propanediol sample as being more bitter (tasters [3]; [16]): 3
% of tasters that chose the control as more bittter (tasters [3]; [17]): 63%
number of tasters that chose the 1,3-Propanediol sample as being more bitter (tasters [3]; [17]): 3
% of tasters that chose the control as more bittter (tasters [3]; [18]): 75%
number of tasters that chose the 1,3-Propanediol sample as being more bitter (tasters [3]; [18]): 2
% of tasters that chose the control as more bittter (tasters [3]; [19]): 75%
number of tasters that chose the 1,3-Propanediol sample as being more bitter (tasters [3]; [19]): 2
% of tasters that chose the control as more bittter (tasters [3]; [20]): 75%
number of tasters that chose the 1,3-Propanediol sample as being more bitter (tasters [3]; [20]): 2
% of tasters that chose the control as more bittter (tasters [3]; [21]): 13%
number of tasters that chose the 1,3-Propanediol sample as being more bitter (tasters [3]; [21]): 7
taste of 1,3-propanediol itself (tasters [3]; 5000 ppm sample in 0.25% KCl in water): the bitterness of the 1,3-propanediol was apparent
tasters who could identify the 1,3-propanediol in a triangle test (tasters [4]; Samples A and B: 0.14% 1,3-propanediol in water): one
tasters who could identify the 1,3-propanediol in a triangle test (tasters [4]; Samples C and D: 0.14% 1,3-propanediol in water with 10% sucrose): one
detectability at low levels (tasters [4]; water or sucrose sweetened beverages): generally not detectable at low levels
sourness as indicated by the tasters (tasters [5]): increased sourness perception when combined with citric acid
other flavor notes / flavor profile as indicated by the tasters (tasters [6]): sour, bitter, and astringent characteristics all changed
sourness as indicated by the tasters (tasters [7]): more sour upfront but less lingering
Stevia bitterness versus control (consumers [8]; [22]): significantly less Stevia bitterness
more mouth drying, longer lasting aftertaste and sweetness versus control (consumers [8]; [22]): Neither the control nor the experimental sample of Pair 1 demonstrated significantly
sweetness versus control (consumers [8]; [22]): fell short on being sweeter than control
all other attributes versus control (consumers [8]; [23]): selected about equally
mouth drying versus control (consumers [8]; [23]): significantly more “mouth drying”
attributes versus control (consumers [8]; first round, Pair 3: 0.0150 percent 1,3-propanediol with 0.05% Stevia SG95): no statistical differences in attributes
attributes versus control (consumers [8]; first round, Pair 4: 0.03 percent 1,3-propanediol (text; Table 1 prints 0.3%) with 0.05% Stevia SG95): no statistical differences in attributes
bitterness versus control (consumers [8]; first round, Pair 4 level of 1,3-propanediol with 0.05% Stevia SG95): numerically more bitterness
attributes versus control (consumers [8]; second round, Pair 1: 0.0000005 percent 1,3-propanediol with 0.05% Stevia SG95): no statistical differences in attributes
aftertaste compared to control (consumers [8]; [24]): significantly longer lasting aftertaste
all other attributes versus control (consumers [8]; [24]): selected about equally
attributes versus control (consumers [8]; second round, Pair 3: 0.00005 percent 1,3-propanediol with 0.05% Stevia SG95): no statistical differences in attributes
bitterness compared to control (consumers [8]; [25]): significantly less bitterness
sweetness compared to control (consumers [8]; [25]): more sweetness; also recorded: significantly sweeter versus control
effect on flavor profile with Reb A (panelists): general shift in bitter and sour flavor profiles
sourness as indicated by the tasters (tasters [9]): increases the sourness compared to water when combined with acetic acid
sweetness, statistical significance (consumers [10]; 0.0005 percent 1,3-propanediol with 0.25% KCl, non-KCl sensitive consumers): statistically significant increase in sweetness
reduced bitterness and increased sweetness (consumers [10]; about 0.0005% 1,3-propanediol with 0.25% KCl, KCl sensitive consumers, FIG. 5): also found in the KCl sensitive consumers (FIG. 5), although to a less dramatic extent
bitterness (consumers [10]; [26]): reduced bitterness
sweetness (consumers [10]; [26]): increased sweetness

[Cl-].[K+] [KCl, potassium chloride]
share of “KCl sensitive” consumers (consumers [11]; day 1: 0.25% KCl solution versus water): 67%
share of “KCl sensitive” consumers (consumers [11]; day 2: KCl solution (0.25%) versus NaCl solution (0.15%)): 53%

From US9408406B2, “Food and beverage products containing 1,3-propanediol and methods of suppressing bitterness and enhancing sweetness in food and beverage products using 1,3-propanediol” (Kraft Foods Group Brands LLC, priority 2012, dated 2016)
